Results: patent US7384911B2, “Peptides having antimicrobial properties and compositions containing them, notably for the preservation of foodstuffs” (priority 2002, dated 2008)
Residues, ends and D or L forms follow the SMILES beside them.

How the values were obtained:
Format in all cases: cell-based
Micrococcus luteus [1] = assay: Bactericidal or bacteriostatic effect, spreading on Petri dishes and counting colonies; details: colonies counted after 24 h of incubation, Yes/No
Method: (§1) The bactericidal or bacteriostatic effect of the peptide was determined by spreading on Petri dishes and counting the colonies present after 24 h of incubation.

Staphylococcus aureus [2] = assay: as above; details: colonies counted after 24 h of incubation, Yes/No
Method: as §1

[3] = tested on: V. anguillarum ATCC 19264; assay: as above; details: colonies counted after 24 h of incubation, Yes/No
Method: as §1

B. megaterium [4] = assay: as above; details: colonies counted after 24 h of incubation, Yes/No
Method: as §1

Bacillus subtilis [5] = assay: as above; details: colonies counted after 24 h of incubation, Yes/No
Method: as §1

Salmonella typhimurium [6] = assay: as above; details: colonies counted after 24 h of incubation, Yes/No
Method: as §1

[7] = tested on: Vibrio metshnikovii NCTC 8483; assay: as above; details: colonies counted after 24 h of incubation, Yes/No
Method: as §1

Klebsiella pneumoniae [8] = assay: as above; details: colonies counted after 24 h of incubation, Yes/No
Method: as §1

Escherichia coli SBS 363 [9] = assay: as above; details: colonies counted after 24 h of incubation, Yes/No
Method: as §1

S. haemolyticus [10] = assay: as above; details: colonies counted after 24 h of incubation, Yes/No
Method: as §1

[11] = tested on: Pseudomonas aeruginosa ATCC 82118; assay: as above; details: colonies counted after 24 h of incubation, Yes/No
Method: as §1

Nocardia asteroides = assay: as above; details: colonies counted after 24 h of incubation, Yes/No
Method: as §1

Micrococcus luteus [12] = details: interval [a]-[b], tested spheniscin-2 0.2-100 μM, MSI-94 0.2-10 μM
Method: (§2) The bacteria to be tested were suspended in a suitable nutritive medium of the “poor broth” type corresponding to a solution of bactotryptone at 10 g/l with the addition of NaCl 5 g/l in ultrapure water.
(§3) Antimicrobial activities were detected by a growth inhibition test in microtitration plates (Hétru and Bulet, 1997). One deposited […] of each fraction collected in mictrotitration plates in the presence of 90 μl of culture medium containing the microorganisms (at a final concentration equivalent to 1 mDO at 600 nm).
(§4) For the bacteria and the yeast, incubation was performed at 30° C. for 12-24 h under agitation. The growth of the microorganisms was measured by monitoring the absorbance at 600 nm by means of a spectrophotometer reader of microtitration plates.
(§5) The antimicrobial activities expressed in minimal inhibitory concentration (MIC) of spheniscin 2 (concentrations comprised between 0.2 μM and 100 μM) were determined against bacteria, yeasts and fungi using a growth inhibition test in liquid medium in microtitration plates (for the detailed protocol see example 2.4 as well as Hétru and Bulet, 1997).
(§6) The minimal growth inhibitory concentration (MIC) corresponds to the interval [a]-[b] in which [a] is the strongest concentration tested for which the microorganism grows and [b] is the weakest concentration tested starting at which there is 100% inhibition of growth of the microorganism (Casteels and Tempst, 1994). The control peptides were MSI-94 (a peptide of the mangainin family stemming from the skin of the batrachian Xenopus laevis and presenting a broad spectrum of antimicrobial activity; Maloy and Kari, 1995) for testing against the bacteria and yeasts; and thanatin (an antifungal peptide stemming from the insect Podisus maculiventris; Fehlbaum et al., 1996) for testing against the filamentous fungi.

Staphylococcus aureus [13] = details: interval [a]-[b], tested spheniscin-2 0.2-100 μM, MSI-94 0.2-10 μM
Method: as §2, §3, §4, §5, §6

Aerococcus viridans = details: interval [a]-[b], tested spheniscin-2 0.2-100 μM, MSI-94 0.2-10 μM
Method: as §2, §3, §4, §5, §6

B. megaterium [14] = details: interval [a]-[b], tested spheniscin-2 0.2-100 μM, MSI-94 0.2-10 μM
Method: as §2, §3, §4, §5, §6

Bacillus subtilis [15] = details: interval [a]-[b], tested spheniscin-2 0.2-100 μM, MSI-94 0.2-10 μM
Method: as §2, §3, §4, §5, §6

Salmonella typhimurium [16] = details: interval [a]-[b], tested spheniscin-2 0.2-100 μM, MSI-94 0.2-10 μM
Method: as §2, §3, §4, §5, §6

Klebsiella pneumoniae [17] = details: interval [a]-[b], tested spheniscin-2 0.2-100 μM, MSI-94 0.2-10 μM
Method: as §2, §3, §4, §5, §6

Listeria monocytogenes = details: interval [a]-[b], tested spheniscin-2 0.2-100 μM, MSI-94 0.2-10 μM
Method: as §2, §3, §4, §5, §6

Escherichia coli SBS 363 [18] = details: interval [a]-[b], tested spheniscin-2 0.2-100 μM, MSI-94 0.2-10 μM
Method: as §2, §3, §4, §5, §6

S. haemolyticus [19] = details: interval [a]-[b], tested spheniscin-2 0.2-100 μM, MSI-94 0.2-10 μM
Method: as §2, §3, §4, §5, §6

CC[C@H](C)[C@@H]1NC(=O)[C@@H]2CCCN2C(=O)[C@H]([C@@H](C)CC)NC(=O)[C@H](CO)NC(=O)[C@@H]2CCCN2C(=O)[C@H](Cc2ccccc2)NC(=O)[C@H](CCCNC(=N)N)NC(=O)[C@@H]2CSSC[C@@H](C(=O)N[C@@H](CCCNC(=N)N)C(=O)N[C@@H](CCCNC(=N)N)C(=O)N[C@H](C(=O)N[C@@H](Cc3c[nH]c4ccccc34)C(=O)O)C(C)C)NC(=O)[C@@H]3CSSC[C@H](NC(=O)[C@H](CC(C)C)NC(=O)CNC(=O)[C@H](Cc4ccccc4)NC(=O)[C@@H](N)CO)C(=O)N[C@@H](CCCNC(=N)N)C(=O)N[C@@H](CC(C)C)C(=O)N[C@@H](CCCNC(=N)N)C(=O)N[C@@H](CCCNC(=N)N)C(=O)NCC(=O)N[C@@H](Cc4ccccc4)C(=O)N[C@@H](CSSC[C@H](NC(=O)[C@H](CCCNC(=N)N)NC(=O)CNC1=O)C(=O)N[C@@H](CO)C(=O)N[C@@H](CCCNC(=N)N)C(=O)N[C@@H](Cc1ccccc1)C(=O)N[C@@H](C(C)C)C(=O)N[C@@H](CCC(N)=O)C(=O)N3)C(=O)N[C@@H](C)C(=O)N[C@@H](CCCNC(=N)N)C(=O)NCC(=O)N[C@@H](CCCNC(=N)N)C(=O)N2 [spheniscin-2] (HELM PEPTIDE1{S.F.G.L.C.R.L.R.R.G.F.C.A.R.G.R.C.R.F.P.S.I.P.I.G.R.C.S.R.F.V.Q.C.C.R.R.V.W}$PEPTIDE1,PEPTIDE1,5:R3-33:R3|PEPTIDE1,PEPTIDE1,12:R3-27:R3|PEPTIDE1,PEPTIDE1,17:R3-34:R3$$$V2.0; N-terminus and C-terminus assumed)
Yes: Bactericidal effect of spheniscin-2 (Micrococcus luteus [1]) | Bactericidal effect of spheniscin-2 (Staphylococcus aureus [2]) | Bactericidal effect of spheniscin-2 (B. megaterium [4]) | Bactericidal effect of spheniscin-2 (Bacillus subtilis [5]) | Bactericidal effect of spheniscin-2 [7] | Bactericidal effect of spheniscin-2 (S. haemolyticus [10]) | Bactericidal effect of spheniscin-2 (Nocardia asteroides)
6 to 12 µM: MIC (Salmonella typhimurium [16]) | MIC (Listeria monocytogenes)
0.4 to 0.8 µM: MIC (Aerococcus viridans) | MIC (B. megaterium [14])
1.5 to 3 µM: MIC (Micrococcus luteus [12]) | MIC (Staphylococcus aureus [13]) | MIC (S. haemolyticus [19])
No: Bactericidal effect of spheniscin-2 [3] | Bactericidal effect of spheniscin-2 (Salmonella typhimurium [6]) | Bactericidal effect of spheniscin-2 (Klebsiella pneumoniae [8]) | Bactericidal effect of spheniscin-2 (Escherichia coli SBS 363 [9]) | Bactericidal effect of spheniscin-2 [11]
50 to 100 µM: MIC (Klebsiella pneumoniae [17])
0.8 to 1.5 µM: MIC (Bacillus subtilis [15]) | MIC (Escherichia coli SBS 363 [18])
